Patent US12241890B2, “Methods for generating barcoded nucleic acid molecules using fixed cells” (10X Genomics, Inc., priority 2019, dated 2025)
Entries after “also recorded” stand apart in the source; their conditions may differ.

Key:
[1] = system: PFA-fixed PBMCs; assay: Bulk un-fixing of PFA-fixed PBMCs, bulk RNA isolation and bulk RNA sequencing (Example 1); format: cell-based; settings: 4% PFA-fixed PBMCs, 50 mM un-fixing agent, 0.2% SDS, 10 mU/mL Proteinase K, 40° C. 2 h; for complexity of the transcriptomic library relative to no treatment of the fixed PBMCs (FIG. 8): estimated with Preseq
Protocol: Un-fixing agent solutions: the un-fixing agent of compounds (1), (4), (8), and (11) were each formulated in 30 mmol Tris buffer, pH 6.8 to a target concentration of 80 mM and the pH was adjusted to pH 6.5 using 2M NaOH. The final formulation was filtered through a 0.2 μm nylon syringe filter before addition into final composition of 50 mM of the un-fixing agent compound, 0.2% SDS, 10 mU/mL of Proteinase K and 0.2 U/mL RNAse inhibitor in 30 mM Tris, pH 6.8.
Bulk Un-fixing: PBMCs were fixed with 4% PFA for 24 h at 4° C. and quenched with 10% Fetal Bovine Serum (“FBS”) in PBS. The PFA-fixed PBMCs were treated with an un-fixing agent solution of compounds (1), (4), (8), or (11) formulated as described above at 40° C. for 2 h. Three different control samples also were prepared without un-fixing agent added: (1) fresh PBMCs (“Fresh Pellet” control); (2) PBMCs fixed with 4% PFA for 24 h then treated with 0.2% SDS, 10 mU/mL Proteinase K, and 0.2 U/mL RNAse inhibitor in 30 mM Tris, pH 6.8 at 40° C. for 2 h (“Fixed+PK, No UF agt.” control); and (3) PBMCs fixed with 4% PFA for 24 h (“fixed no un-fixing agent” control).
Bulk RNA isolation: After the bulk un-fixing treatment of the PFA-fixed PBMCs, the resulting treated (and control) samples were centrifuged at 450 g for 5 min and pellet as well as supernatant were collected. RNA isolation from collected pellets and supernatants was performed using RNeasy Plus Mini Kit (Qiagen, Cat #_74134) and RNeasy MinElute Cleanup Kit (Qiagen, Cat #74204), respectively. Isolated RNA was quantified using Qubit™ RNA HS Assay Kit (Invitrogen, Cat #Q32855) and Agilent RNA ScreenTape System (Agilent Technologies).
Bulk RNA sequencing: RNA could not be isolated from the “fixed no un-fixing agent” control sample. […] The “Fresh Pellet” control data was obtained by sequencing following bulk RNA isolation using the Qiagen kit without performing the 10× Genomics Single Cell 3′V3 protocol described below. For the four un-fixing agent treated samples and the remaining control samples described above, cDNA amplification was performed using an equivalent of 10 ng RNA. Post cDNA amplification, library prep was performed according to the 10× Genomics Single Cell 3′V3 protocol (10× Genomics, Pleasanton, CA, USA). A 3000-cell load of fresh PBMCs was used as a single cell reference (“Fresh SC3P”) and library prep was performed using Single Cell 3′V3 protocol (10× Genomics, Pleasanton, CA, USA). The final libraries were sequenced to between 25 and 100 million reads on a NovaSeq 6000 sequencer (Illumina Inc., San Diego, CA, USA). Bulk library complexity was estimated using the software package Preseq, as described by Daley and Smith (see e.g., Daley and Smith, “Predicting the molecular complexity of sequencing libraries,” Nature Methods 10:325-327, 2013). Library complexity as used here refers to the estimated number of unique RNA molecules aligned properly to the transcriptome (i.e., reads considered to be informative and used for gene expression counting) as a function of all sequenced reads. Gene expression counts were down-sampled across libraries to match the lowest sequencing depth and pairwise gene expression correlations were computed as the Pearson correlation (R^2) of gene expression counts between samples. When comparing gene expression data from control, unfixed PBMCs, gene expression counts were summed across cells to produce pseudo-bulk gene expression counts, as is customary in commercial gene expression analysis software (e.g., 10× Genomics, Pleasanton, CA, USA).

[2] = system: RNA treated with formaldehyde; settings: Karmakar et al., Nature Chemistry 7: 752-758 (2015); cited from earlier work
[3] = system: PFA-fixed Jurkats; assay: Bulk un-fixing of PFA-fixed Jurkats with proline analog un-fixing agents and cold-active protease, RNA yield (Example 10); format: cell-based; settings: 4% PFA-fixed Jurkats; 100 mM un-fixing agent, 10 U/mL ArcticZymes Proteinase where present; 14-25° C. 90 min then 80° C. 15 min
Protocol: B. Un-fixing agent stock solutions: the proline analog un-fixing agents of compounds (12), (13), (14), and (15) were each formulated in 50 mmol Tris buffer, pH 8.3 to a target concentration of 300 mM and the pH was adjusted to pH 8.3 using 2M NaOH. The final formulation was filtered through a 0.2 μm nylon syringe filter before addition into final composition of 100 mM of the un-fixing agent compound, 10 U/mL ArcticZymes Proteinase and 0.2 U/mL RNAse inhibitor in 50 mM Tris, pH 8.3.
C. Protease stock solution: A stock solution of 10 U/mL of the cold-active protease, ArcticZymes Proteinase (ArcticZymes Technologies ASA, Tromso, Norway) was stored at −20° C.
D. Bulk un-fixing/protease treatment of fixed cells: Jurkats were fixed with 4% PFA for 24 h at 4° C. and quenched with 10% Fetal Bovine Serum (“FBS”) in PBS. RNAse inhibitor was added to the fixed cell solution together with 10 U/mL of the cold-active protease, ArcticZymes Proteinase, 1 mM of the protease inhibitor, and 100 mM of one of each of the tested un-fixing agents: compound (8), (12), (13), (14), or (15). […]
E. Bulk RNA isolation: After the bulk un-fixing treatment of the PFA-fixed Jurkats, the resulting samples were centrifuged 5 minutes at 500 g, 4° C., and the supernatant and pellet fractions were collected separately. […] Isolated RNA was quantified using Qubit™ RNA HS Assay Kit (Invitrogen, Cat #Q32855).

Compound | RNA recovery per read sequenced relative to fixed PBMCs treated only with proteinase K and SDS [1] | transcriptomic mapping relative to fixed PBMC samples not treated with an un-fixing agent (FIG. 7) [1] | complexity of the transcriptomic library relative to no treatment of the fixed PBMCs (FIG. 8) [1] | breakdown of aminal and hemi-aminal adducts in RNA treated with formaldehyde [2] | recovery of RNA from the fixed biological sample [1] | Pellet Avg. RNA yield [3] | Supernatant Avg. RNA yield [3]
Cc1ccc(N)c(S(=O)(=O)O)c1 [(4), 2-amino-5-methylbenzenesulfonic acid] | increased RNA recovery per read sequenced | increased the transcriptomic mapping | higher complexity of the transcriptomic library |  |  |  | 
(2-amino-5-{[2-(2-poly-ethoxy)ethyl]carbamoyl} phenyl)phosphonic acid [(11)] |  | decreased the transcriptomic mapping |  |  |  |  | 
Cc1ccc(N)c(P(=O)(O)O)c1 [(3), (2-amino-5-methylphenyl)phosphonic acid] |  |  |  | catalytically break down the aminal and hemi-aminal adducts |  |  | 
Cc1ccc(N)c(C(=O)O)c1 [Compound (1), 2-amino-5-methylbenzoic acid] | increased RNA recovery per read sequenced | increased the transcriptomic mapping | higher complexity of the transcriptomic library |  | highest recovery of RNA |  | 
Nc1ccncc1P(=O)(O)O [Compound (8), (4-aminopyridin-3-yl)phosphonic acid] |  | decreased the transcriptomic mapping | higher complexity of the transcriptomic library; also recorded: highest library complexity |  |  | 54 ng | 200 ng
